Where two headings read alike, the source gives them in different places.
What was measured:
TTR [1] = target: T1, TTR (Homo sapiens, UniProt P02766); assay: Saturation experiment for the FITC-T4-TTR complex; format: binding; conditions: 30 nM TTR, FITC-T4 0 to 1,000 nM, no inhibitor
Method: Competitive TTR-binding assays were performed by incubating human TTR ( 30nM ) with 110nM of FITC- T4 in the presence of test compounds, reference compound T4 , or carrier solvent control (1% DMSO). For each incubation with TTR, a parallel incubation was performed without TTR to correct for background fluorescence of the unbound FITC- T4 . In the competitive binding experiments, these control incubations were also used to check for possible quenching of FITC- T4 fluorescence by the test compounds and for autofluorescence of the test compounds themselves, neither of which was observed. […]
The Kd value for the FITC-T4-TTR complex was determined in a saturation binding experiment with various concentrations of FITC-T4 (ranging from LT = 0 to LT = 1E-6 M) in the absence or the presence of a fixed concentration of TTR (PT = 3E-8 M).
Using the least-squares method, a non-linear regression fit was performed on the corrected fluorescence Fc as a function of LT, yielding parameter estimates p*(q-1)=0.644 (AFU/nM) and […]
S1.4 Derivation of Ki from the ICx determined in the bioassay
The inhibitor-specific ICx value determined in the bioassay is defined as the total inhibitor concentration [IT] at which the concentration of ligand-protein complex [PLx] is (100-x)% of the concentration of ligand-protein complex in the absence of inhibitor [PL0], i.e. […]

[2] = design: method as in Jahnke et al. 2004; conditions: rodents; ref Jahnke et al. 2004; cited from earlier work
[3] = design: method as in Jahnke et al. 2004; conditions: humans; ref Jahnke et al. 2004; cited from earlier work
TTR [4] = target: T1, TTR; assay: FITC-T4 TTR competitive binding assay; conditions: pH 8
TTR [5] = conditions: ref Hamers et al. 2008; Weiss et al. 2009; read-out: IC20 in the radioligand binding assay; cited from earlier work
TBG = conditions: ref Salvatore et al. 2016; read-out: Kd(TBG) for T4; cited from earlier work

Kd (TTR [1]) [nM] | IC20 (TTR [4]) [nM] | SMILES | T4 half-life time [2] [h] | T4 half-life time [3] [h] | IC20 (TTR [5]) [nM] | Kd (TBG) [nM]
140 | – | O=C1OC2(c3ccc(O)cc3Oc3cc(O)ccc32)c2ccc(NC(=S)NC(Cc3cc(I)c(Oc4cc(I)c(O)c(I)c4)c(I)c3)C(=O)O)cc21 (stereo not drawn) [FITC- T4] | – | – | – | –
– | 21 | NC(Cc1cc(I)c(Oc2cc(I)c(O)c(I)c2)c(I)c1)C(=O)O (stereo not drawn) [Thyroxine ( T4 ), thyroxine] | 12 to 24 | 120 to 220 | ~30 | 0.1

Source: publication PMC7015555, “Transthyretin-Binding Activity of Complex Mixtures Representing the Composition of Thyroid-Hormone Disrupting Contaminants in House Dust and Human Serum” (Environmental Health Perspectives, 2020)
